{"source": "paper PMC5433425", "about": "(PeerJ, 2017)", "key": {"[1]": {"test_system": "Mycobacterium tuberculosis H37Rv ATCC27294T", "assay": "MIC, antibacterial specificity", "format": "cell-based"}, "E. coli AG100": {"test_system": "E. coli AG100", "assay": "Intracellular ATP levels determination", "format": "cell-based, Escherichia coli", "procedure": "The ATP levels were measured using the ATP Determination Kit (Invitrogen, Life Technologies, Paisley, UK) according to the manufacturer’s instructions. […] A drug-free control was included in the assay to monitor the normal growth of the strain. Aliquots of bacteria were collected at 0, 1, 2, 3, 4, 5, 6, and 24 h of incubation at 37 °C, with shaking, inactivated by heating and immediately deep frozen. […] CPZ and PAβN were included for comparison."}, "Mycobacterium avium 104": {"test_system": "Mycobacterium avium 104", "assay": "MIC, antibacterial specificity", "format": "cell-based"}, "[2]": {"test_system": "panel of selected bacterial species", "assay": "Spectrum of activity, average MIC per bacterial group", "format": "cell-based"}, "[3]": {"test_system": "Mycobacterium smegmatis mc2155 ATCC700084T", "assay": "MIC, antibacterial specificity", "format": "cell-based"}}, "note": "Several values for one entry are separate records, joined by “and”; a condition that tells them apart may be missing. Identical values can stand only once.", "data": [{"smiles": "CCCOc1ccc(-c2cc(OCCN3CCNCC3)c3ccccc3n2)cc1", "note": "[PQQ4R, 4-(2-(piperazin-1-yl)ethoxy)-2-(4-propoxyphenyl) quinolone]", "values": [{"measurement": "MIC", "setting": "[1]", "result": 32, "unit": "mg/L"}, {"measurement": "ATP levels during the first 3 h of exposure", "setting": "E. coli AG100; AG100, 320 µM (1/2 MIC) and 640 µM (MIC), same level as drug-free control", "result": "remained constant"}, {"measurement": "ATP production less than that of the drug-free control", "setting": "E. coli AG100; AG100, half MIC (320 µM), 24 h of exposure", "result": 80, "unit": "%"}, {"measurement": "ATP - luciferase:Lum", "setting": "E. coli AG100; PQQ4R MIC, T1", "result": "438 and 716"}, {"measurement": "ATP - luciferase:Lum", "setting": "E. coli AG100; PQQ4R MIC, T2", "result": "453 and 417"}, {"measurement": "ATP - luciferase:Lum", "setting": "E. coli AG100; PQQ4R MIC, T3", "result": "588 and 696"}, {"measurement": "ATP - luciferase:Lum", "setting": "E. coli AG100; PQQ4R MIC, T4", "result": "454 and 413"}, {"measurement": "ATP - luciferase:Lum", "setting": "E. coli AG100; PQQ4R MIC, T5", "result": "701 and 675"}, {"measurement": "ATP - luciferase:Lum", "setting": "E. coli AG100; PQQ4R MIC, T6", "result": "445 and 588"}, {"measurement": "ATP - luciferase:Lum", "setting": "E. coli AG100; PQQ4R MIC, T24", "result": "545 and 530"}, {"measurement": "ATP - luciferase:Lum", "setting": "E. coli AG100; PQQ4R half MIC, T1", "result": "406 and 431"}, {"measurement": "ATP - luciferase:Lum", "setting": "E. coli AG100; PQQ4R half MIC, T2", "result": "561 and 463"}, {"measurement": "ATP - luciferase:Lum", "setting": "E. coli AG100; PQQ4R half MIC, T3", "result": "373 and 549"}, {"measurement": "ATP - luciferase:Lum", "setting": "E. coli AG100; PQQ4R half MIC, T4", "result": "467 and 479"}, {"measurement": "ATP - luciferase:Lum", "setting": "E. coli AG100; PQQ4R half MIC, T5", "result": "511 and 436"}, {"measurement": "ATP - luciferase:Lum", "setting": "E. coli AG100; PQQ4R half MIC, T6", "result": "560 and 587"}, {"measurement": "ATP - luciferase:Lum", "setting": "E. coli AG100; PQQ4R half MIC, T24", "result": "4358 and 4198"}, {"measurement": "MIC", "setting": "Mycobacterium avium 104", "result": 32, "unit": "mg/L"}, {"measurement": "average MIC", "setting": "[2]; Gram-negative bacteria", "result": "≥ 128", "unit": "mg/L"}, {"measurement": "average MIC", "setting": "[2]; Gram-positive bacteria", "result": 50, "unit": "mg/L"}, {"measurement": "average MIC", "setting": "[2]; acid-fast bacteria", "result": 32, "unit": "mg/L"}, {"measurement": "MIC", "setting": "[3]", "result": 32, "unit": "mg/L"}]}]}
